Experimental data as given in PubChem BioAssay (NCI).
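A five-concentration, 48-hour dose response in 96-well plates underlies each endpoint, interpolated linearly between surrounding concentrations. GI50 = concentration required for 50% inhibition of growth. TGI marks complete inhibition of growth.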

Tests used:
Experiment in all cases: NCI anticancer screen, dose series, 48 h
[1] = test system: SK-MEL-28 melanoma
[2] = test system: SK-MEL-2 melanoma
[3] = test system: M14 melanoma
[4] = test system: EKVX NSCLC
[5] = test system: U251 CNS
[6] = test system: PC-3 prostate
[7] = test system: RPMI-8226 leukemia
[8] = test system: OVCAR-3 ovarian
[9] = test system: NCI-H23 lung
[10] = test system: MALME-3M melanoma
[11] = test system: T-47D breast
[12] = test system: UO-31 renal
[13] = test system: SK-MEL-5 melanoma
[14] = test system: MDA-MB-468 breast
[15] = test system: A549 NSCLC
[16] = test system: MDA-MB-435
[17] = test system: NCI/ADR-RES ovarian
[18] = test system: HOP-62 NSCLC
[19] = test system: HCC-2998 colon
[20] = test system: SK-OV-3 ovarian
[21] = test system: A498 renal
[22] = test system: HL-60(TB) leukemia
[23] = test system: TK-10 renal
[24] = test system: NCI-H226 lung
[25] = test system: SF-268 CNS
[26] = test system: NCI-H522 lung
[27] = test system: K-562 leukemia
[28] = test system: 786-0 renal
[29] = test system: SF-539 CNS
[30] = test system: HCT-15 colon
[31] = test system: COLO 205 colon
[32] = test system: OVCAR-8 ovarian
[33] = test system: SN12C renal
[34] = test system: HS 578T breast
[35] = test system: SW-620 colon
[36] = test system: HOP-92 NSCLC
[37] = test system: ACHN renal
[38] = test system: HT29 colon
[39] = test system: CCRF-CEM leukemia
[40] = test system: CAKI-1 renal
[41] = test system: SF-295 CNS
[42] = test system: MCF7 breast
[43] = test system: SNB-19 CNS
[44] = test system: MDA-MB-231 breast
[45] = test system: LOX IMVI melanoma
[46] = test system: HCT-116 colon
[47] = test system: BT-549 breast
[48] = test system: OVCAR-4 ovarian
[49] = test system: UACC-62 melanoma
[50] = test system: KM12 colon
[51] = test system: MOLT-4 leukemia
[52] = test system: SR leukemia
[53] = test system: NCI-H460 lung
[54] = test system: SNB-75 CNS
[55] = test system: DU-145 prostate
[56] = test system: UACC-257 melanoma
[57] = test system: RXF 393 renal
[58] = test system: IGROV1 ovarian
[59] = test system: OVCAR-5 ovarian

Question: How did the GI50 [1] turn out when COc1cc2c(c(OC)c1OC)C(=O)CC(c1cccc(NC(=O)c3cc([N+](=O)[O-])ccc3Cl)c1)O2 (stereo not drawn) was run?
Answer: 15.5 µM

Question: What about the TGI [1] of the same compound?
Answer: > 100 µM

Question: And the GI50 [2]?
Answer: 10.8 µM

Question: And the TGI [2]?
Answer: 40.1 µM

Question: What about the GI50 [3] of the same compound?
Answer: 3.17 µM

Question: What about the TGI [3] of the same compound?
Answer: 15.9 µM

Question: And the GI50 [4]?
Answer: 21.9 µM

Question: And the TGI [4]?
Answer: > 100 µM

Question: And the GI50 [5]?
Answer: 4.32 µM

Question: What about the TGI [5] of the same compound?
Answer: 25 µM

Question: What about the GI50 [6] of the same compound?
Answer: 7.27 µM

Question: And the TGI [6]?
Answer: > 100 µM

Question: What about the GI50 [7] of the same compound?
Answer: 3.14 µM

Question: What about the TGI [7] of the same compound?
Answer: 38.1 µM

Question: What about the GI50 [8] of the same compound?
Answer: 5.12 µM

Question: And the TGI [8]?
Answer: > 100 µM

Question: What about the GI50 [9] of the same compound?
Answer: 5.34 µM

Question: What about the TGI [9] of the same compound?
Answer: 26.9 µM

Question: What about the GI50 [10] of the same compound?
Answer: 18.2 µM

Question: What about the TGI [10] of the same compound?
Answer: > 100 µM

Question: What about the GI50 [11] of the same compound?
Answer: 3.74 µM

Question: And the TGI [11]?
Answer: 58.7 µM

Question: And the GI50 [12]?
Answer: 4.78 µM

Question: What about the TGI [12] of the same compound?
Answer: > 100 µM

Question: What about the GI50 [13] of the same compound?
Answer: 8.99 µM

Question: What about the TGI [13] of the same compound?
Answer: 73.3 µM

Question: What about the GI50 [14] of the same compound?
Answer: 2.3 µM

Question: What about the TGI [14] of the same compound?
Answer: 5.92 µM

Question: And the GI50 [15]?
Answer: 6.66 µM

Question: What about the TGI [15] of the same compound?
Answer: > 100 µM

Question: And the GI50 [16]?
Answer: 3.51 µM

Question: And the TGI [16]?
Answer: 24.8 µM

Question: And the GI50 [17]?
Answer: 4.99 µM

Question: And the TGI [17]?
Answer: 29.5 µM

Question: What about the GI50 [18] of the same compound?
Answer: 60.9 µM

Question: What about the TGI [18] of the same compound?
Answer: > 100 µM

Question: And the GI50 [19]?
Answer: 13.7 µM

Question: What about the TGI [19] of the same compound?
Answer: > 100 µM

Question: And the GI50 [20]?
Answer: 38.8 µM

Question: And the TGI [20]?
Answer: > 100 µM

Question: And the GI50 [21]?
Answer: 45 µM

Question: And the TGI [21]?
Answer: > 100 µM

Question: What about the GI50 [22] of the same compound?
Answer: 4.91 µM

Question: And the TGI [22]?
Answer: 57.7 µM

Question: And the GI50 [23]?
Answer: 33.6 µM

Question: And the TGI [23]?
Answer: > 100 µM

Question: What about the GI50 [24] of the same compound?
Answer: 3.37 µM

Question: What about the TGI [24] of the same compound?
Answer: 17.5 µM

Question: And the GI50 [25]?
Answer: 6.92 µM

Question: What about the TGI [25] of the same compound?
Answer: > 100 µM

Question: What about the GI50 [26] of the same compound?
Answer: 3.04 µM

Question: What about the TGI [26] of the same compound?
Answer: 15.5 µM

Question: What about the GI50 [27] of the same compound?
Answer: 4.42 µM

Question: And the TGI [27]?
Answer: > 100 µM

Question: And the GI50 [28]?
Answer: 17.5 µM

Question: And the TGI [28]?
Answer: > 100 µM

Question: And the GI50 [29]?
Answer: 3.54 µM

Question: And the TGI [29]?
Answer: 18.9 µM

Question: What about the GI50 [30] of the same compound?
Answer: 2.04 µM

Question: And the TGI [30]?
Answer: 6.08 µM

Question: And the GI50 [31]?
Answer: 5.49 µM

Question: And the TGI [31]?
Answer: 21 µM

Question: What about the GI50 [32] of the same compound?
Answer: 3.47 µM

Question: What about the TGI [32] of the same compound?
Answer: 20.5 µM

Question: And the GI50 [33]?
Answer: 2.74 µM

Question: What about the TGI [33] of the same compound?
Answer: 14.6 µM

Question: What about the GI50 [34] of the same compound?
Answer: 3.98 µM

Question: And the TGI [34]?
Answer: > 100 µM

Question: What about the GI50 [35] of the same compound?
Answer: 2.14 µM

Question: What about the TGI [35] of the same compound?
Answer: 5.61 µM

Question: And the GI50 [36]?
Answer: 2.73 µM

Question: What about the TGI [36] of the same compound?
Answer: 17.8 µM

Question: What about the GI50 [37] of the same compound?
Answer: 5 µM

Question: What about the TGI [37] of the same compound?
Answer: 27.8 µM

Question: What about the GI50 [38] of the same compound?
Answer: 7.21 µM

Question: What about the TGI [38] of the same compound?
Answer: > 100 µM

Question: What about the GI50 [39] of the same compound?
Answer: 2.44 µM

Question: What about the TGI [39] of the same compound?
Answer: 7.84 µM

Question: What about the GI50 [40] of the same compound?
Answer: 3.22 µM

Question: And the TGI [40]?
Answer: > 100 µM

Question: And the GI50 [41]?
Answer: 7.61 µM

Question: And the TGI [41]?
Answer: > 100 µM

Question: And the GI50 [42]?
Answer: 2.56 µM

Question: What about the TGI [42] of the same compound?
Answer: > 100 µM

Question: And the GI50 [43]?
Answer: 18.6 µM

Question: And the TGI [43]?
Answer: > 100 µM

Question: And the GI50 [44]?
Answer: 3.96 µM

Question: And the TGI [44]?
Answer: 19.1 µM

Question: What about the GI50 [45] of the same compound?
Answer: 1.59 µM

Question: And the TGI [45]?
Answer: 3.56 µM

Question: What about the GI50 [46] of the same compound?
Answer: 1.69 µM

Question: And the TGI [46]?
Answer: 3.64 µM

Question: What about the GI50 [47] of the same compound?
Answer: 2.27 µM

Question: And the TGI [47]?
Answer: 16.8 µM

Question: And the GI50 [48]?
Answer: 26.6 µM

Question: What about the TGI [48] of the same compound?
Answer: > 100 µM

Question: What about the GI50 [49] of the same compound?
Answer: 4.17 µM

Question: What about the TGI [49] of the same compound?
Answer: 45.3 µM

Question: And the GI50 [50]?
Answer: 3.86 µM

Question: And the TGI [50]?
Answer: 33.8 µM

Question: What about the GI50 [51] of the same compound?
Answer: 2.56 µM

Question: And the TGI [51]?
Answer: > 100 µM

Question: And the GI50 [52]?
Answer: 2.39 µM

Question: What about the TGI [52] of the same compound?
Answer: > 100 µM

Question: What about the GI50 [53] of the same compound?
Answer: 8.14 µM

Question: What about the TGI [53] of the same compound?
Answer: 82.9 µM

Question: What about the GI50 [54] of the same compound?
Answer: 2.53 µM

Question: What about the TGI [54] of the same compound?
Answer: 26.3 µM

Question: And the GI50 [55]?
Answer: 5.48 µM

Question: What about the TGI [55] of the same compound?
Answer: > 100 µM

Question: And the GI50 [56]?
Answer: 6.27 µM

Question: What about the TGI [56] of the same compound?
Answer: > 100 µM

Question: What about the GI50 [57] of the same compound?
Answer: 4.02 µM

Question: What about the TGI [57] of the same compound?
Answer: 34.4 µM

Question: And the GI50 [58]?
Answer: 11.3 µM

Question: What about the TGI [58] of the same compound?
Answer: > 100 µM

Question: What about the GI50 [59] of the same compound?
Answer: 22.4 µM

Question: What about the TGI [59] of the same compound?
Answer: > 100 µM
